# From US20260070945A1, “MACROCYCLIC IMMUNOMODULATORS” (Bristol-Myers Squibb Company, priority 2022, published 2026)
# Where a SMILES comes first, the peptide text is derived from it. Bridges are numbered along the chain shown (N, C = ends). [ ]: non-standard residue; d: D form. The star is where a group is joined. ξ: configuration not given here. Phe(4-CONH2) = NC(=O)c1ccc(C[C@H](N)C(=O)O)cc1; Phe(4-COOH) = N[C@@H](Cc1ccc(C(=O)O)cc1)C(=O)O; Bip = N[C@@H](Cc1ccc(-c2ccccc2)cc1)C(=O)O; Phe(3-Me) = Cc1cccc(C[C@H](N)C(=O)O)c1; Val(3-OH) = CC(C)(O)[C@H](N)C(=O)O; Aad = N[C@@H](CCCC(=O)O)C(=O)O; Cha = N[C@@H](CC1CCCCC1)C(=O)O; Thr(3ξ) = CC(O)[C@H](N)C(=O)O; Carboxymethyl = O=C(O)C*; NMeA = CN[C@@H](C)C(=O)O; Aun = NCCCCCCCCCCC(=O)O; Dab = NCC[C@H](N)C(=O)O; AEEA = NCCOCCOCC(=O)O
# Target: T1, PD-1/PD-L1 interaction (PE-labeled human PD-L1-Ig binding to Jurkat cell line over-expressing human PD-1) (Homo sapiens, UniProt Q15116)
# T1 construct: expressed in transfected cells; host or cells: Jurkat
# T1 sequence (Q15116 25-288): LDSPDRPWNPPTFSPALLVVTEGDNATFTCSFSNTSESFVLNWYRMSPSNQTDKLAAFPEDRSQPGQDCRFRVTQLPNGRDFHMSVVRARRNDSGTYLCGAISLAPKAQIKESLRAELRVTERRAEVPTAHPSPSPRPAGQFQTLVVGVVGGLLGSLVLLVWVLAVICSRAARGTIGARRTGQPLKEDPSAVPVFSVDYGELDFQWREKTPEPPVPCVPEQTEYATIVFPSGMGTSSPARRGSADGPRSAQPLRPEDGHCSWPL
# Assay: Jurkat-PD-1 Cell Binding High-Content Screening Assay (CBA)
# Conditions: Jurkat-hPD-1 cells, PE-labeled PD-L1-Ig 20 nM final; read-out: Jurkat HPD1 PDL1 IC50
# Method in brief: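 Binding of 20 nM (final) PE-tagged PD-L1-Ig to compound-pretreated Jurkat-hPD-1 cells was measured by high-content imaging after 1 h. Pretreatment ran 2 h at 37 °C in DMEM with 10% fetal calf serum.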
row,IC50,SMILES
1,19.6 nM,Cc1cccc(C[C@@H]2NC(=O)[C@H](CC(=O)O)NC(=O)[C@H](Cc3ccc(OCC(=O)O)cc3)NC(=O)[C@H](C(C)O)NC(=O)CSC[C@@H](C(=O)N[C@@H](CCN)C(=O)NCCOCCOCC(=O)NCCCCCCCCCCC(=O)O)NC(=O)[C@H](CC(=O)O)NC(=O)[C@H](C(C)C)NC(=O)[C@H](CC3CCCCC3)NC(=O)[C@H](CCN)NC(=O)[C@@H](CC(C)C)NC(=O)[C@H](C)N(C)C(=O)[C@H](Cc3ccc(OCC(=O)O)cc3)NC(=O)[C@H](Cc3ccc(-c4ccccc4)cc3)NC(=O)[C@H](Cc3ccc(C(=O)O)cc3)NC2=O)c1 (stereo partly drawn) [Example 2479] ({CH2CO}-[Thr(3ξ)]Y(Carboxymethyl)D[Phe(3-Me)][Phe(4-COOH)][Bip]Y(Carboxymethyl)[NMeA][dL][Dab][Cha]VDC[Dab][AEEA][Aun]-OH; thioether N-14)
2,17.4 nM,Cc1cccc(C[C@@H]2NC(=O)[C@H](CC(=O)O)NC(=O)[C@H](Cc3ccc(C(N)=O)cc3)NC(=O)[C@H](C(C)O)NC(=O)CSC[C@@H](C(=O)N[C@@H](CCN)C(=O)NCCOCCOCC(=O)NCCCCCCCCCCC(=O)O)NC(=O)[C@H](CCC(=O)O)NC(=O)[C@H](C(C)C)NC(=O)[C@H](CC3CCCCC3)NC(=O)[C@H](CCN)NC(=O)[C@@H](CC(C)C)NC(=O)[C@H](C)N(C)C(=O)[C@H](Cc3ccc(OCC(=O)O)cc3)NC(=O)[C@H](Cc3ccc(-c4ccccc4)cc3)NC(=O)[C@H](Cc3ccc(C(=O)O)cc3)NC2=O)c1 (stereo partly drawn) [Example 2480] ({CH2CO}-[Thr(3ξ)][Phe(4-CONH2)]D[Phe(3-Me)][Phe(4-COOH)][Bip]Y(Carboxymethyl)[NMeA][dL][Dab][Cha]VEC[Dab][AEEA][Aun]-OH; thioether N-14)
3,14.6 nM,Cc1cccc(C[C@@H]2NC(=O)[C@H](CC(=O)O)NC(=O)[C@H](Cc3ccc(OCC(=O)O)cc3)NC(=O)[C@H](C(C)O)NC(=O)CSC[C@@H](C(=O)N[C@@H](CCN)C(=O)NCCOCCOCC(=O)NCCCCCCCCCCC(=O)O)NC(=O)[C@H](CCC(=O)O)NC(=O)[C@H](C(C)C)NC(=O)[C@H](CC3CCCCC3)NC(=O)[C@H](CCN)NC(=O)[C@@H](CC(C)C)NC(=O)[C@H](C)N(C)C(=O)[C@H](Cc3ccc(OCC(=O)O)cc3)NC(=O)[C@H](Cc3ccc(-c4ccccc4)cc3)NC(=O)[C@H](Cc3ccc(C(=O)O)cc3)NC2=O)c1 (stereo partly drawn) [Example 2481] ({CH2CO}-[Thr(3ξ)]Y(Carboxymethyl)D[Phe(3-Me)][Phe(4-COOH)][Bip]Y(Carboxymethyl)[NMeA][dL][Dab][Cha]VEC[Dab][AEEA][Aun]-OH; thioether N-14)
4,12.6 nM,Cc1cccc(C[C@@H]2NC(=O)[C@H](CC(=O)O)NC(=O)[C@H](Cc3ccc(OCC(=O)O)cc3)NC(=O)[C@H](CCN)NC(=O)CSC[C@@H](C(=O)N[C@@H](CCN)C(=O)NCCCCCCCCCCC(=O)O)NC(=O)[C@H](Cc3c[nH]cn3)NC(=O)[C@H](C(C)(C)O)NC(=O)[C@H](CC3CCCCC3)NC(=O)[C@H](CCN)NC(=O)[C@@H](CC(C)C)NC(=O)[C@H](C)N(C)C(=O)[C@H](Cc3ccc(OCC(=O)O)cc3)NC(=O)[C@H](Cc3ccc(-c4ccccc4)cc3)NC(=O)[C@H](Cc3ccc(OCC(=O)O)cc3)NC2=O)c1 [Example 2483] ({CH2CO}-[Dab]Y(Carboxymethyl)D[Phe(3-Me)]Y(Carboxymethyl)[Bip]Y(Carboxymethyl)[NMeA][dL][Dab][Cha][Val(3-OH)]HC[Dab][Aun]-OH; thioether N-14)

# Further lines, the compound ahead of its results:
row,SMILES,IC50
1,Cc1cccc(C[C@@H]2NC(=O)[C@H](CC(=O)O)NC(=O)[C@H](Cc3ccc(OCC(=O)O)cc3)NC(=O)[C@H](C(C)O)NC(=O)CSC[C@@H](C(=O)N[C@@H](CCN)C(=O)NCCOCCOCC(=O)NCCCCCCCCCCC(=O)O)NC(=O)[C@H](CCCC(=O)O)NC(=O)[C@H](C(C)C)NC(=O)[C@H](CC3CCCCC3)NC(=O)[C@H](CCN)NC(=O)[C@@H](CC(C)C)NC(=O)[C@H](C)N(C)C(=O)[C@H](Cc3ccc(OCC(=O)O)cc3)NC(=O)[C@H](Cc3ccc(-c4ccccc4)cc3)NC(=O)[C@H](Cc3ccc(C(=O)O)cc3)NC2=O)c1 (stereo partly drawn) [Example 2476] ({CH2CO}-[Thr(3ξ)]Y(Carboxymethyl)D[Phe(3-Me)][Phe(4-COOH)][Bip]Y(Carboxymethyl)[NMeA][dL][Dab][Cha]V[Aad]C[Dab][AEEA][Aun]-OH; thioether N-14),14.4 nM
2,Cc1cccc(C[C@@H]2NC(=O)[C@H](CC(=O)O)NC(=O)[C@H](Cc3ccc(C(=O)O)cc3)NC(=O)[C@H](C(C)O)NC(=O)CSC[C@@H](C(=O)N[C@@H](CCN)C(=O)NCCOCCOCC(=O)NCCCCCCCCCCC(=O)O)NC(=O)[C@H](Cc3ccc(C(=O)O)cc3)NC(=O)[C@H](C(C)C)NC(=O)[C@H](CC3CCCCC3)NC(=O)[C@H](CCN)NC(=O)[C@@H](CC(C)C)NC(=O)[C@H](C)N(C)C(=O)[C@H](Cc3ccc(OCC(=O)O)cc3)NC(=O)[C@H](Cc3ccc(-c4ccccc4)cc3)NC(=O)[C@H](Cc3ccc(C(=O)O)cc3)NC2=O)c1 (stereo partly drawn) [Example 2477] ({CH2CO}-[Thr(3ξ)][Phe(4-COOH)]D[Phe(3-Me)][Phe(4-COOH)][Bip]Y(Carboxymethyl)[NMeA][dL][Dab][Cha]V[Phe(4-COOH)]C[Dab][AEEA][Aun]-OH; thioether N-14),24.5 nM
3,Cc1cccc(C[C@@H]2NC(=O)[C@H](CC(=O)O)NC(=O)[C@H](Cc3ccc(OCC(=O)O)cc3)NC(=O)[C@H](C(C)O)NC(=O)CSC[C@@H](C(=O)N[C@@H](CCN)C(=O)NCCOCCOCC(=O)NCCCCCCCCCCC(=O)O)NC(=O)[C@H](Cc3ccc(OCC(=O)O)cc3)NC(=O)[C@H](C(C)C)NC(=O)[C@H](CC3CCCCC3)NC(=O)[C@H](CCN)NC(=O)[C@@H](CC(C)C)NC(=O)[C@H](C)N(C)C(=O)[C@H](Cc3ccc(OCC(=O)O)cc3)NC(=O)[C@H](Cc3ccc(-c4ccccc4)cc3)NC(=O)[C@H](Cc3ccc(C(=O)O)cc3)NC2=O)c1 (stereo partly drawn) [Example 2478] ({CH2CO}-[Thr(3ξ)]Y(Carboxymethyl)D[Phe(3-Me)][Phe(4-COOH)][Bip]Y(Carboxymethyl)[NMeA][dL][Dab][Cha]VY(Carboxymethyl)C[Dab][AEEA][Aun]-OH; thioether N-14),25.2 nM
4,Cc1cccc(C[C@@H]2NC(=O)[C@H](CC(=O)O)NC(=O)[C@H](Cc3ccc(OCC(=O)O)cc3)NC(=O)[C@H](C(C)O)NC(=O)CSC[C@@H](C(=O)N[C@@H](CCN)C(=O)NCCOCCOCC(=O)NCCOCCOCC(=O)NCCCCCCCCCCC(=O)O)NC(=O)[C@H](CCC(=O)O)NC(=O)[C@H](C(C)C)NC(=O)[C@H](CC3CCCCC3)NC(=O)[C@H](CCN)NC(=O)[C@@H](CC(C)C)NC(=O)[C@H](C)N(C)C(=O)[C@H](Cc3ccc(OCC(=O)O)cc3)NC(=O)[C@H](Cc3ccc(-c4ccccc4)cc3)NC(=O)[C@H](Cc3ccc(C(=O)O)cc3)NC2=O)c1 (stereo partly drawn) [Example 2482] ({CH2CO}-[Thr(3ξ)]Y(Carboxymethyl)D[Phe(3-Me)][Phe(4-COOH)][Bip]Y(Carboxymethyl)[NMeA][dL][Dab][Cha]VEC[Dab][AEEA][AEEA][Aun]-OH; thioether N-14),20.7 nM
